In patent publication US7119111B2, “2-oxo-1,3,4-trihydroquinazolinyl derivatives and methods of use” (Amgen, Inc., priority 2002, dated 2006):
Where a name gives a salt, the structure may show the parent alone.

SMILES	melting point [°C]
O=C1Nc2cccc(CN3CCOCC3)c2CN1c1csc(-c2ccncc2)n1 (as salt: HCl) [Example 14, 5-(Morpholin-4-ylmethyl)-3-(2-(4-pyridyl)(1,3-thiazol-4-yl))-1,3,4-trihydroquinazolin-2-one]	261 to 263
O=C1Nc2cccc(CN3CCCCC3)c2CN1c1csc(-c2ccncc2)n1 (as salt: HCl) [Example 15, 5-(Piperidylmethyl)-3-(2-(4-pyridyl)(1,3-thiazol-4-yl))-1,3,4-trihydroquinazolin-2-one]	278 to 280
O=C1Nc2cccc(Br)c2CN1c1csc(-c2ccncc2)n1 [Example 6, 5-Bromo-3-(2-(4-pyridyl)(1,3-thiazol-4-yl))-1,3,4-trihydroquinazolin-2-one]	283 to 284
Cc1ccc2c(c1)CN(c1csc(-c3ccncc3)n1)C(=O)N2 [Example 7, 6-Methyl-3-(2-(4-pyridyl)(1,3-thiazol-4-yl))-1,3,4-trihydroquinazolin-2-one]	259 to 261
O=C1Nc2cc(F)ccc2CN1c1csc(-c2ccncc2)n1 [Example 9, 7-Fluoro-3-(2-(4-pyridyl)(1,3-thiazol-4-yl))-1,3,4-trihydroquinazolin-2-one]	285 to 286
O=C1Nc2ccc(F)cc2CN1c1csc(-c2ccncc2)n1 [Example 10, 6-Fluoro-3-(2-(4-pyridyl)(1,3-thiazol-4-yl))-1,3,4-trihydroquinazolin-2-one]	290 to 291
O=C1Nc2cccc(Cl)c2CN1c1csc(-c2ccncc2)n1 [Example 11, 5-Chloro-3-(2-(4-pyridyl)(1,3-thiazol-4-yl))-1,3,4-trihydroquinazolin-2-one]	292 to 293
O=C1Nc2cc(-c3ccccc3)ccc2CN1c1csc(-c2ccncc2)n1 [Example 12, 7-Phenyl-3-(2-(4-pyridyl)(1,3-thiazol-4-yl))-1,3,4-trihydroquinazolin-2-one]	248 to 250
O=C1Nc2cccc(F)c2CN1c1csc(-c2ccncc2)n1 [Example 13, 5-Fluoro-3-(2-(4-pyridyl)(1,3-thiazol-4-yl))-1,3,4-trihydroquinazolin-2-one]	247 to 249
O=C1Nc2ccccc2CN1c1nc(-c2ccncc2)cs1 [Example 16, 3-(4-(4-Pyridyl)-1,3-thiazol-2-yl)-1,3,4-trihydroquinazolin-2-one]	> 267
O=C1Nc2ccccc2CN1c1nc(-c2ccccn2)cs1 [Example 17, 3-(4-(2-Pyridyl)-1,3-thiazol-2-yl)-1,3,4-trihydroquinazolin-2-one]	> 275
O=C1Nc2ccccc2CN1c1nc(-c2cccnc2)cs1 [Example 18, 3-(4-(3-Pyridyl)-1,3-thiazol-2-yl)-1,3,4-trihydroquinazolin-2-one]	269 to 272
O=C1Nc2cc(CN3CCOCC3)ccc2CN1c1csc(-c2ccncc2)n1 [Example 27, 7-(Morpholin-4-ylmethyl)-3-(2-(4-pyridyl)(1,3-thiazol-4-yl))-1,3,4-trihydroquinazolin-2-one]	249 to 250
O=C1Nc2cccc(CN3CCCCCC3)c2CN1c1csc(-c2ccncc2)n1 [Example 29, 5-(Azaperhydroepinylmethyl)-3-(2-(4-pyridyl)(1,3-thiazol-4-yl))-1,3,4-trihydroquinazolin-2-one]	202 to 204
COc1cccc(-c2ccc3c(c2)NC(=O)N(c2csc(-c4ccncc4)n2)C3)c1 [Example 30, 7-(3-Methoxyphenyl)-3-(2-(4-pyridyl)(1,3-thiazol-4-yl))-1,3,4-trihydroquinazolin-2-one]	256 to 258
CCc1cc(-c2nc(N3Cc4ccccc4NC3=O)cs2)ccn1 [Example 35, 3-[2-(2-Ethyl-4-pyridyl)-1,3-thiazol-4-yl]-1,3,4-trihydroquinazolin-2-one]	239 to 240
O=C1Nc2ccc(N3CCCCC3)cc2CN1c1nc(-c2ccncc2)cs1 [Example 36, 6-Piperidyl-3-(4-(4-pyridyl)(1,3-thiazol-2-yl))-1,3,4-trihydroquinazolin-2-one]	> 272
CN(C)CCN(C)c1ccc2c(c1)CN(c1nc(-c3ccncc3)cs1)C(=O)N2 [Example 37, 6-{[2-(Dimethylamino)ethyl](methyl)amino}-3-(4-(4-pyridyl)(1,3-thiazol-2-yl))-1,3,4-trihydroquinazolin-2-one]	254 to 257

The next lines start with the values.

melting point [°C]	SMILES
259 to 260	O=C1Nc2cccc(OCCN3CCOCC3)c2CN1c1nc(-c2ccncc2)ns1 (as salt: salt) [Example 51, 5-(2-Morpholin-4-ylethoxy)-3-(3-(4-pyridyl)(1,2,4-thiadiazol-5-yl))-1,3,4-trihydroquinazolin-2-one]
301 to 304	CN1CCN(c2ccc3c(c2)CN(c2nc(-c4ccncc4)cs2)C(=O)N3)CC1 [Example 38, 6-(4-Methylpiperazinyl)-3-(4-(4-pyridyl)(1,3-thiazol-2-yl))-1,3,4-trihydroquinazolin-2-one]
289 to 293	O=C1Nc2ccccc2CN1c1nc(-c2ccc(F)c(F)c2)cs1 [Example 39, 3-[4-(3,4-Difluorophenyl)-1,3-thiazol-2-yl]-1,3,4-trihydroquinazolin-2-one]
254 to 258	Cc1ccc(Oc2ccc3c(c2)CN(c2nc(-c4ccncc4)cs2)C(=O)N3)c(C)c1 [Example 40, 6-(2,4-Dimethylphenoxy)-3-(4-(4-pyridyl)(1,3-thiazol-2-yl))-1,3,4-trihydroquinazolin-2-one]
283 to 288	COc1ccc(-c2csc(N3Cc4ccccc4NC3=O)n2)c(OC)c1 [Example 41, 3-[4-(2,4-Dimethoxyphenyl)-1,3-thiazol-2-yl]-1,3,4-trihydroquinazolin-2-one]
> 300	O=C1Nc2cccc(Cl)c2CN1c1nc(-c2ccncc2)cs1 [Example 43, 5-Chloro-3-(4-(4-pyridyl)(1,3-thiazol-2-yl))-1,3,4-trihydroquinazolin-2-one]
295 to 299	O=C1Nc2ccccc2CN1c1nc(-c2ccc(Cl)c(Cl)c2)cs1 [Example 44, 3-[4-(3,4-Dichlorophenyl)-1,3-thiazol-2-yl]-1,3,4-trihydroquinazolin-2-one]
> 300	O=C1Nc2cccc(F)c2CN1c1nc(-c2ccncc2)cs1 [Example 45, 5-Fluoro-3-(4-(4-pyridyl)(1,3-thiazol-2-yl))-1,3,4-trihydroquinazolin-2-one]
> 290	O=C1Nc2ccccc2CN1c1nc(-c2ccncc2)ns1 [Example 46, 3-(3-(4-Pyridyl)-1,2,4-thiadiazol-5-yl)-1,3,4-trihydroquinazolin-2-one]
301 to 305	O=C1Nc2ccccc2CN1c1ccc(-c2ccncc2)s1 [Example 47, 3-(5-(4-Pyridyl)-2-thienyl)-1,3,4-trihydroquinazolin-2-one]
275 to 278	COc1ccc(-c2csc(N3Cc4ccccc4NC3=O)n2)cc1 [Example 48, 3-[4-(4-Methoxyphenyl)-1,3-thiazol-2-yl]-1,3,4-trihydroquinazolin-2-one]
288 to 291	O=C1Nc2ccccc2CN1c1nc(-c2ccc(O)cc2)cs1 [Example 49, 3-[4-(4-Hydroxyphenyl)-1,3-thiazol-2-yl]-1,3,4-trihydroquinazolin-2-one]
